Measurements: patent publication US6664268B1, “Crystal modification B of 8-cyano-1-cyclopropyl-7-(1S,6S-2, 8-diazabicyclo[4.3.0]nonan-8-yl)-6-fluoro-1,4-dihydro-4-oxo-3-quinolinecarboxylic acid” (Bayer Aktiengesellschaft, priority 1998, dated 2003)

Tests used:
[1] = Water absorption at 95% relative atmospheric humidity; assay type: physicochemical; conditions: relative atmospheric humidity of 95% (saturated solution of Na2HPO4×12 H2O with sediment in water), within one day
From the text: At a relative atmospheric humidity of 95% (established using a saturated solution of Na2HPO4×12 H2O with sediment in water), the solid obtained according to this procedure absorbs approximately 17% by weight of water within one day.
At a relative atmospheric humidity of 95% (established using a saturated solution of Na2HPO4×12 H2O with sediment in water), the solid obtained according to this procedure absorbs approximately 1% by weight of water within one day.

[2] = Storage stability of the crystal modification; assay type: physicochemical
From the text: In addition, compared with amorphous CCDC, the modification B tends to absorb less water from the atmosphere. For these reasons, it is highly suitable for preparing tablets or other solid formulations. Owing to its stability, it gives these formulations the desired long-lasting storage stability. Using the crystal modification B, it is therefore possible to prepare, in a defined and targeted manner, stable solid preparations of CCDC.

| SMILES | water absorbed by the solid [1] | stability of crystal modification on prolonged storage [2] |
| --- | --- | --- |
| N#Cc1c(N2C[C@@H]3CCCN[C@@H]3C2)c(F)cc2c(=O)c(C(=O)O)cn(C3CC3)c12 [Example 1, 8-cyano-1-cyclopropyl-7-(1 S,6S-2,8-diazabicyclo[4.3.0]nonan-8-yl)-6-fluoro-1,4-dihydro-4-oxo-3-quinolinecarboxylic acid] | approximately 1 % by weight | does not change into another crystal modification or the amorphous form |
| N#Cc1c(N2C[C@@H]3CCCN[C@@H]3C2)c(F)cc2c(=O)c(C(=O)O)cn(C3CC3)c12 [Comparative Example, 8-cyano-1-cyclopropyl-7-(1 S,6S-2,8-diazabicyclo[4.3.0]nonan-8-yl)-6-fluoro-1,4-dihydro-4-oxo-3-quinolinecarboxylic acid, reference compound] | approximately 17 % by weight | – |
